The target in data set [1] is NK1 receptor (Meriones unguiculatus (Mongolian jird) (Gerbillus unguiculatus), UniProt Q5DUB1). In words: Effect on foot-tapping induced by NK1 receptor agonist GR73632. The format is in vivo. Conditions: male gerbil, 0.1 mg/kg iv, GR73632 after four hours. Summed up: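 Male gerbils under isoflurane received test compound 0.1 mg/kg i.v. (jugular vein) in DMA/propylene glycol/hydroxypropyl-β-cyclodextrin/water vehicle; 4 h later GR73632 (5 pmol) was given intracerebroventricularly. Foot-tapping time was recorded for 30 min after righting-reflex recovery; inhibition % was calculated relative to vehicle-treated animals.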

Data set [2] deals with human CYP3A4 (Homo sapiens (Human), UniProt P08684). In words: Inhibitory effect on CYP3A4. The format is in vitro ADME. The following applies: 30-minute pre-incubation, Luciferin-IPA substrate; read-out: IC50 (μM), CYP3A4 inhibition. The essentials:
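Recombinant human CYP3A4 (0.2 pmol) with 1 nM–20 μM test compound, 0.5 mM NADPH and 3 μM Luciferin-IPA in phosphate buffer pH 7.4, 10 min at 37 °C; one arm was pre-incubated 30 min at 37 °C before substrate addition.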

Data set [3] deals with human NK1 receptor (Homo sapiens (Human), UniProt P25103). Nature of the data set: Inhibitory effect on human NK1 receptor (substance P-induced increase in intracellular calcium concentration). Type of data set: cell-based. Conditions: substance P 1 μM, compound 0.1 μM; read-out: SPRR (%), Substance P-Response Remaining (intracellular calcium concentration). How it is done: Inhibitory Effect on Human NK1 Receptor
(1) Preparation of Human NK1 Receptor-Expressing Cells
Human NK1 receptor-expressing cells were prepared by the same methods as those described in 2-3 of Test Example 1.
(2) Study on Inhibitory Effect on Increase in Intracellular Calcium Concentration
The human NK1 receptor-expressing cells were washed with 300 μL/well of a washing solution (20 mM HEPES/Hank's Balanced Salt Solution (HBSS) pH 7.3). A fluorescent calcium indicator (Fluo-4 Direct Calcium Assay Kit, Life Technologies, containing 0.42 mM probenecid and 0.1% bovine serum albumin, prepared according to the protocol of the product) was added to the wells at 150 μL/well, and the plate was incubated at 37° C. for 30 minutes in an incubator. Then. DMSO solutions of a test compound, which were prepared at an 80-time higher concentration using 100% dimethyl sulfoxide (DMSO), were added to the wells at 2.5 μL/well (final concentrations of 0.1, 1 and 10 μM), and the solutions were mixed. Then, the plate was further incubated at […] for 30 minutes in an incubator. After 30 minutes, the intracellular calcium concentrations were measured immediately.
The intracellular calcium concentrations were each measured as a fluorescent signal using FDSS (registered trademark) 7000 (Hamamatsu Photonics). A substance P (Peptide Institute. Inc.) solution which was prepared at 0.4 μM or 4 μM using an assay buffer (20 mM HEPES/Hank's Balanced Salt Solution (HBSS) pH 7.3, containing 0.1% bovine serum albumin) was added automatically to each well at 50 μL/well (final concentration of 0.1 or 1 μM) 10 seconds after starting reading, and the fluorescent signal was measured up to 120 seconds.
The intracellular calcium concentration (%) of the cells to which a test compound was added was calculated by the equation below, where the fluorescent signal of the group to which the vehicle (DMSO) was added was regarded as 100%, and the fluorescent signal before the addition of substance P was regarded as 0%. Intracellular calcium concentration (%)—(Fluorescent signal of test compound addition group)/(Fluorescent signal of vehicle addition group)×100
The intracellular calcium concentration (%) calculated was regarded as the remaining agonist activity of substance P (Substance P-Response Remaining: SPRR). In the table, Ex. No. means the Example number. SPRR (%) is the value obtained when the concentration of substance P was 1 μM and the concentration of the compound was 0.1 μM.
A general note: Calcium flux is commonly read through the fluorescence of an indicator in the cells.

A short description of data set [4]: Measurement of drug concentrations in the brain after foot-tapping. The format is in vivo. Conditions: male gerbil, 0.1 mg/kg iv, after foot-tapping was finished. Summed up:
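Male gerbils given 0.1 mg/kg test compound i.v. (jugular vein) under isoflurane; 4 h later GR73632 (5 pmol/5 μl saline) injected intracerebroventricularly. Foot-tapping measured for 30 min after righting-reflex recovery; inhibition % relative to solvent-treated animals. Brain and plasma then collected, compound quantified by LC/MS.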

Sequence of human NK1 receptor (P25103 whole entry): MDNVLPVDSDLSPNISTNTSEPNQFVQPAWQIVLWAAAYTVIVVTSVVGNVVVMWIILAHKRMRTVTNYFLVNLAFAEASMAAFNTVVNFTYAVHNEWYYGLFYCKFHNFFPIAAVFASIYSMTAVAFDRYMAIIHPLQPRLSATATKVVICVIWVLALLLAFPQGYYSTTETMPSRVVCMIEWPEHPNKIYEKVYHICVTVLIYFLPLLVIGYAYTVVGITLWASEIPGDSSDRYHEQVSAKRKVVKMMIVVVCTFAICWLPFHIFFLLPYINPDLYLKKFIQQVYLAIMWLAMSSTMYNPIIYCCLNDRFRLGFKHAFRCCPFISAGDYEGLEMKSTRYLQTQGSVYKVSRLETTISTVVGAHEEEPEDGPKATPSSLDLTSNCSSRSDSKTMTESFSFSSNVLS
Sequence of NK1 receptor (Q5DUB1 whole entry): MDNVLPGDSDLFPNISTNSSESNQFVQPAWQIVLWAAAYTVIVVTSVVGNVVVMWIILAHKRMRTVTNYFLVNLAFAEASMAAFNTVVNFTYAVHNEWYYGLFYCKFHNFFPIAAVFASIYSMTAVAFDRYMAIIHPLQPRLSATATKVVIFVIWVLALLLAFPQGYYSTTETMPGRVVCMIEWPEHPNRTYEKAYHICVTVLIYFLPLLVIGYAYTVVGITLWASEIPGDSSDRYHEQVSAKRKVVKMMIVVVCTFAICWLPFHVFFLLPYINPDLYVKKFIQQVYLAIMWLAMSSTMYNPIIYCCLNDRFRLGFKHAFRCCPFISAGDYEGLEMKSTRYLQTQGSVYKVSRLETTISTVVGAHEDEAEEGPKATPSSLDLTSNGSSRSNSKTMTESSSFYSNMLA
Sequence of human CYP3A4 (P08684 whole entry): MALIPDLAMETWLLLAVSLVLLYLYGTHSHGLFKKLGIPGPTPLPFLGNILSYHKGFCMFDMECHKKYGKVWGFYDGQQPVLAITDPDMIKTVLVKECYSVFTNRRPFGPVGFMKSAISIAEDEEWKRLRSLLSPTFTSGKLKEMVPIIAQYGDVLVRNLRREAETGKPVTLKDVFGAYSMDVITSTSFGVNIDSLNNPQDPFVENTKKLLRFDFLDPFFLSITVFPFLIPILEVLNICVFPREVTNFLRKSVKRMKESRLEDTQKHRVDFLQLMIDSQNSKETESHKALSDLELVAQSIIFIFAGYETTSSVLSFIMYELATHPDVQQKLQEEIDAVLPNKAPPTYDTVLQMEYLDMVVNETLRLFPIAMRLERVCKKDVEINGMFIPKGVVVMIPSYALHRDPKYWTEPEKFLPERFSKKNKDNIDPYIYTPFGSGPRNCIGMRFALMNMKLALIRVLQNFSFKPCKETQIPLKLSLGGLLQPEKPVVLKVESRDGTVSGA

As to `Cc1ccccc1-c1cc(C2CCC(CC(=O)O)CC2)ncc1N(C)C(=O)C(C)(C)c1cc(C(F)(F)F)cc(C(F)(F)F)c1` (centres unmarked) [Example 9, {4-[5-{[2-(3,5-Bistrifluoromethylphenyl)-2-methylpropionyl]methylamino}-4-ortho-tolylpyridine-yl]-cyclohexyl}acetic Acid], the “Inhibition (%), foot-tapping inhibition rate” value in data set [1] worked out at 75%. Moreover, in data set [2], the IC50 was determined as 6.9 µM. Besides, the remaining activity at 0.1 µM in data set [3] is 42%. For the same compound, in data set [4], the “Conc. (nM), drug concentration in the brain” value came out at 47 nM.

With `Cc1cc(F)ccc1-c1cc(C2CCCC(CC(=O)O)C2)ncc1N(C)C(=O)C(C)(C)c1cc(C(F)(F)F)cc(C(F)(F)F)c1` (centres unmarked) [Example 3, {3-[5-{[2-(3,5-Bistrifluoromethylphenyl)-2-methylpropionyl]methylamino}-4-(4-fluoro-2-methylphenyl)pyridin-2-yl]cyclohexyl}acetic Acid], the “Inhibition (%), foot-tapping inhibition rate” value in data set [1] worked out at 100%. Besides, the IC50 in data set [2] was 9.4 µM. The remaining activity at 0.1 µM in data set [3] amounted to 36%. For the same compound, the “Conc. (nM), drug concentration in the brain” value in data set [4] was determined as 48 nM.

The IC50 is the concentration that inhibits the measured activity by half.

These data come from patent US10011568B2, “Cyclohexyl pyridine derivative” (priority 2014, dated 2018).
